Experimental data from US9353075B2, “Disubstituted beta-lactones as inhibitors of N-acylethanolamine acid amidase (NAAA)” (The Regents of the University of California, priority 2011, dated 2016).
Entries after “also recorded” stand apart in the source; their conditions may differ. Like-named read-outs stand apart in the source and are kept apart here.

Key:
[1] = target: r-NAAA (Rattus norvegicus (Rat), UniProt Q5KTC7); assay: r-NAAA inhibition, rat lung lysosomal NAAA preparation, UPLC/MS; format: biochemical
How it was run: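 Enzyme was a lysosomal fraction from male Sprague-Dawley rat lung, preincubated with compound 30 min at 37 °C in NaH2PO4/citrate pH 4.5, 1% Triton-X, 3 mM DTT. Heptadecenoylethanolamide (50 μM) was hydrolysed 30 min at 37 °C. Heptadecenoic acid was quantified by UPLC/MS against vehicle, and IC50 fitted by non-linear regression.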

[2] = system: IL-4, IL-5, IFN-g, and IgE blood levels; assay: Immune response in DNFB-induced dermatitis; format: in vivo, mouse; conditions: mice, topical
Description: The methods include the following. Dermatitis in mice was induced with 2-4 Dinitrofluorobenzene (DNFB) as previously described. IL-4, IL-5, IFN-g, and IgE blood levels were determined by immunoassays. The effect of compound 6 was tested using a single treatment protocol.

[3] = system: carrageenan-induced paw edema and hyperalgesia; assay: Carrageenan-induced inflammatory responses in mice; format: in vivo, mouse
Description: The Methods include the following: Carragenan (1%) was injected into the left hind paw of Swiss albino mice. Paw edema was measured using a plethysmomether. Cutaneous hyperalgesia (thermal) was assesed by the plantar test (see Hargreaves K, et a 1 (1988), Pain 32: 77-88). Compound 6 was administered topically.

[4] = system: skin integrity (ear thickness, histopathology); conditions: in vivo
Description: The methods included the following. Drug or vehicle were given topical to both ears of CD1 mice for 14 days. Ear thickness was determined by using a micrometer. Histopathological analyses were conducted on formalin-fixed, paraffin-embedded ear sections […] thick and stained with Hematoxylin-Eosin. Epidermal thickness was measured with standard morphometric methods from 12 different samplings spanning the treated area of each ear. Data were analysed by ANOVA followed by Bonferroni's test for multiple comparisons.

[5] = target: h-NAAA (Homo sapiens (Human), UniProt Q02083); assay: UPLC/MS h-NAAA assay; format: biochemical
Description: NAAA protein preparation (10 μg) was pre-incubated with various concentrations of test compound or vehicle control in 100 mM NaH2PO4, 100 mM Tri Sodium Citrate Dehydrate, 0.1% Triton-X 100, 3 mM DTT, pH 4.5 for 30 min at 37° C. Duplicate samples were then incubated with 50 μM C17:1 10-cis-heptadecenoylethanolamide (Avanti Polar Lipids, Alabaster, Ala.—USA) at 37° C. for 30 minutes. The reaction was terminated by the addition of 0.2 mL of cold methanol containing 1 nmol of heptadecanoic acid (NuChek Prep, Elysian, Minn.—USA) as internal standard. Samples were then analyzed by UPLC/MS. Heptadecenoic and heptadecanoic acids were eluted on an Acquity UPLC BEH C18 column (50 mm length, 2.1 mm i.d., 1.7 μm pore size, Waters) isocratically at 0.5 mL/min for 1.5 min with a solvent mixture of 95% methanol and 5% water, both containing 0.25% Acetic Acid and 5 mM Ammonium Acetate. The column temperature was 40° C. Electrospray ionization was in the negative mode, capillary voltage was 2.7 kV, cone voltage was 45 V, extractor voltage was 3 V. The source temperature was 150° C. with a desolvation temperature of 400° C. N2 was used as drying gas at a cone flow of 100 L/hour and a desolvation flow of […]. The [M−H]-ion was monitored in the selected-ion monitoring mode (m/z values: heptadecenoic acid 267.37, heptadecanoic acid 269.37). Calibration curves were generated using commercial heptadecenoic acid (NuCheck Prep) Inhibition of NAAA activity was calculated as reduction of heptadecenoic acid in the samples compared to vehicle controls. IC50 values were calculated by non-linear regression analysis of log [concentration]/inhibition curves using GraphPad Prism 5 (GraphPad Software Inc., CA—USA) applying a standard slope curve fitting.

[6] = compound 6 30% topical, antagonists 1 μg/paw intraplantar

r-NAAA, sequence (Q5KTC7 34-362): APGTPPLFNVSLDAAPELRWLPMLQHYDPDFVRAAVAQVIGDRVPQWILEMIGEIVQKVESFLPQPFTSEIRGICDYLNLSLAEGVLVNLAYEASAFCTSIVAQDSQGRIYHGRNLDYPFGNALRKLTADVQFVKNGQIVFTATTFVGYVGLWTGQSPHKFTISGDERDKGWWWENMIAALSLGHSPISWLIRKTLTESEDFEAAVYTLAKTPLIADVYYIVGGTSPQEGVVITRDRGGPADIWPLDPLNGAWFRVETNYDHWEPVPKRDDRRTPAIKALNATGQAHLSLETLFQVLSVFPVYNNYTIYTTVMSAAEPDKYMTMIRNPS
h-NAAA, sequence (Q02083 29-359): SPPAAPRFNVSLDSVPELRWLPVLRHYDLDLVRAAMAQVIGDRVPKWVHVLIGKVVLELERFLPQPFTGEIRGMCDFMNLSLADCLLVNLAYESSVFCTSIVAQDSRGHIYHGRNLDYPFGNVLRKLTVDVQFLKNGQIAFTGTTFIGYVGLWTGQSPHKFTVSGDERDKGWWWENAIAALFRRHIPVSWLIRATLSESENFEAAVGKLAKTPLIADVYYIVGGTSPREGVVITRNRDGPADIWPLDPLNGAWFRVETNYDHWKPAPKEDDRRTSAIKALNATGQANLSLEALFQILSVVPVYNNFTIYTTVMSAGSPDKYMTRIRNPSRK

IC50 [1]: 50 nM | Skin atrophy (decrease of ear thickness) ([4]; CD1, mouse, 14 days): but not compound 6, causes skin atrophy | Cellular architecture, histopathological and morphometric analysis ([4]; mouse): no alterations of cellular structure | Skin atrophy (decrease of ear thickness) ([4]; mouse): did not affect skin integrity | IC50 [5]: 7 nM
Structure (SMILES): C[C@@H]1OC(=O)[C@@H]1NC(=O)OCCCCCc1ccccc1 [Example 6, 5-phenylpentyl-[(2S,3R)-2-methyl-4-oxooxetan-3-yl]-carbamate]
Dose range of full efficacy on immune response, single administration [2]: 1 to 30% | Effect on immune response compared with steroids [2]: superior to that of steroids | Immunological responses in DNFB dermatitis [2]: normalizes compromised immunological responses | DNFB-induced IFN-γ decrease ([2]; single dosing): reverses DNFB-induced IFN-γ decrease | DNFB-induced IL-4 increase ([2]; single dosing): reverses DNFB-induced IL-4 increase | DNFB-induced IL-5 increase ([2]; single dosing): reverses DNFB-induced IL-5 increase | DNFB-induced IgE increase ([2]; single dosing): reverses DNFB-induced IgE increase | Anti-inflammatory effect on cutaneous hyperalgesia with receptor antagonists [3, 6]: blocked by PPAR-α antagonists, but not by CB1 or CB2 receptor antagonists | Anti-inflammatory effect on paw edema with receptor antagonists [3, 6]: blocked by PPAR-α antagonists, but not by CB1 or CB2 cannabinoid receptor antagonists | Carrageenan-induced paw edema ([3]; mice, topical): marked anti-inflammatory | Carrageenan-induced hyperalgesia ([3]; mice, topical, 90 min after carrageenan): dose-dependently reduces carrageenan-induced hyperalgesia; also recorded: anti-hyperalgesic effects | Anti-inflammatory effects on paw edema and cutaneous hyperalgesia in mice lacking PPAR-α ([3]; topical, 90 min after carrageenan): absent in mice lacking PPAR-α | Cellular architecture, histopathological and morphometric analysis ([4]; CD1, mouse, 14 days): but not compound 6, altered cellular architecture
